The results in this text go back to patent US8221992B2, “Assays for determining compounds which modulate TRAM phosphorylation” (Opsona Therapeutics Limited, priority 2005, dated 2012).

One assay relates to TRAM. As to the kind of experiment: Immunoblot of PKCε expressing MEF lysates with phospho-specific (Serine 16) TRAM antibody. The format is cell-based. Particulars: stimulation for 30 minutes (LPS 15 and 30 minutes). The source says: Fabgennix (Texas, USA), using a synthetic peptide corresponding to amino acids 7 to 21 of TRAM (KIN SCP LSL SWG KRH) with a phosphoserine incorporated instead of the serine at amino acid 16, generated and purified a phospho-specific antibody towards TRAM phosphorylated on Serine 16. The validity of the antibody was confirmed when the band predicted to the phosphorylated TRAM was not present in samples taken from TRAM-deficient MEFs (data not shown).
The phosphorylation occurred earlier in this cell type than the THP1 cells as the effect was waning by 45 minutes (lane 11) and was not evident at 60 minutes (lane 12). Levels of total TRAM were not altered in the lysates over the time course (FIG. 4c, second panel). Importantly no band was detected in lysates generated from PKCε^−/− MEFs (FIG. 4c, top panel, lane 1-6) and no bands were detected in TRAM-deficient cells attesting to the specificity of the antibody (data not shown). Finally treatment of PKCε expressing MEFs with the TLR2 ligand MALP2 or the TLR3 ligand polyI:C for 30 minutes had no effect (FIG. 4d).
For orientation: A western blot detects proteins with antibodies after separation by electrophoresis.

A further assay relates to GST-TRAM. Description: Kinase assay: GST-TRAM pulldown with THP1 lysates, [γ32P] ATP. Type of assay: biochemical. The following applies: THP1 cells treated with the stimulus before lysis. Here is the method:
Kinase assay: THP1 cells were seeded at 2×10^5 cells/ml in a T175 flask (Sarstedt) and incubated overnight at 37° C. The following day 30 ml of cells were treated with and without LPS in 50 ml falcon tubes (Sarstedt) for 1 hour. The cells were collected by centrifugation, washed once in PBS and lysed in 1 ml buffer (10% glycerol (v/v), 50 mM NaF, 20 mM Tris-Cl pH 8.0, 2 mM EDTA, 137 mM NaCl, 1% NP-40, 1 mM PMSF, 10 μg/ml leupeptin, 1 mM Na3VO4) for 10 minutes. The cell debris was centrifuged for 10 min at 13,000 rpm and the supernatant was removed to a fresh tube for use in the kinase assay. 50 μl of the purified GST-TRAM on the Glutathione beads was placed in an eppendorf tube and the appropriate lysate was added to the tube and incubated for 2 hours at 4° C. The beads were spun down at 2,000 rpm for 5 min and then washed three times in kinase buffer (20 mM HEPES, pH 7.5, 10 mM MgAc, 0.03% Trition, 100 μg/ml phosphotidylserine, 20 mM β-glycerol phosphate, 0.01% (w/v) leupeptin and 100 μM Na3VO4). These beads were then resuspended in 30 μl kinase buffer containing 20 μM cold ATP and 5 μCi [γ^32P] […]
TRAM is phosphorylated upon LPS stimulation: TRAM is myristoylated, and in resting cells is located in the membrane (unpublished data). […] The samples were then run on a 10% SDS-PAGE gel, transferred onto nitrocellulose and the incorporated radioactivity was measured using X-ray film. […]

Entries after “also recorded” stand apart in the source; their conditions may differ.

For the substance MALP2, the “TRAM phosphorylation on serine 16 in PKCε expressing MEFs” value in the assay with TRAM is on record as “had no effect”.
On to PolyI:C, for which the “phosphorylation of GST-TRAM by lysates of stimulated THP1 cells” value in the assay on GST-TRAM is on record as “phosphorylation of TRAM does not occur; also recorded: This phosphorylation did not occur”. Further, the “TRAM phosphorylation on serine 16 in PKCε expressing MEFs” value in the assay on TRAM is “had no effect”.
